{"source": "patent US9200067B2", "about": "“Molecular marker CUEDC2 protein for prognostic determination of breast cancer endocrinology therapy” (Biomedical Analysis Center of Academy of Military Medical …, priority 2011, dated 2015)", "key": {"[1]": {"test_system": "MCF-7 cells stably transfected with CUEDC2", "assay": "Cell growth by cell counting under different doses of tamoxifen", "format": "cell-based", "protocol": "(§1) MCF-7 cells stably transfected with CUEDC2 were treated with different doses of tamoxifen, and then the cell growth was observed by a cell counting method. […] In order to eliminate nonspecific effects of over expression of CUEDC2 on cells growth, the inventors knocked down the CUEDC2 expression in the cells and did the same cell growth experiment. […] In order to verify the above conclusion, the inventors further conducted animal experiments. 5×10^6 MCF-7/vector or MCF-7/CUEDC2 cells were injected into the mammary fat pad of ovariectomized nude mice, and estrogen sustained-release tablets were embedded subcutaneously. When tumors grew to 100-150 mm^3, nude mice were divided into two groups randomly, and embedded with tamoxifen or control placebo pills subcutaneously."}, "[2]": {"test_system": "MCF-7/vector or MCF-7/CUEDC2 cells", "assay": "Tumor formation in ovariectomized nude mice (mammary fat pad xenograft)", "format": "in vivo", "conditions": "tamoxifen sustained-release tablets subcutaneously, vs placebo", "protocol": "4-week-old female nude mice were purchased from Animal Laboratory Center of the Academy of Military Medical Sciences; the Cell Titer Glo Luminescent Cell Viability Assay was purchased from Promega Company; the Estrogen and tamoxifen sustained-release tablets were purchased from Innovative Research of America.\nas §1"}, "MCF-7 cells": {"test_system": "MCF-7 cells", "assay": "Crystal violet colony-formation assay", "format": "cell-based"}}, "note": "“Also recorded” adds a separate entry of the source."}
{"smiles": "CC/C(=C(\\c1ccccc1)c1ccc(OCCN(C)C)cc1)c1ccccc1", "note": "[tamoxifen]", "values": [{"measurement": "sensitivity of cell growth to tamoxifen", "setting": "[1]; MCF-7 cells over expressing CUEDC2, different doses of tamoxifen", "result": "insensitive"}, {"measurement": "sensitivity of cells to tamoxifen after CUEDC2 knockdown", "setting": "[1]; MCF-7 cells over expressing CUEDC2 knocked down by CUEDC2 siRNA", "result": "restored the sensitivity"}, {"measurement": "tumor growth", "setting": "[2]; MCF-7/CUEDC2 cells in nude mice", "result": "could not effectively inhibit; also recorded: cannot inhibit tumor growth effectively"}, {"measurement": "tumor growth", "setting": "[2]; MCF-7/vector cells in nude mice", "result": "significantly inhibit"}, {"measurement": "sensitivity to tamoxifen-induced cell death", "setting": "MCF-7 cells; cells over expressing CUEDC2", "result": "insensitive"}, {"measurement": "sensitivity to tamoxifen-induced cell death", "setting": "MCF-7 cells; control MCF-7 empty vector cells", "result": "sensitive"}]}
